A melting point compilation (Tetko et al.; mined from patent text by program, amines drawn as free bases though some values may be those of a salt)

melting point	SMILES
157 °C	Cc1ccc(C(C)NC(=O)C2CC(=O)c3cc(F)ccc3O2)cc1 (single isomer, unassigned; (+))
208 to 209 °C	CCOC(=O)c1c(-c2cc(C(C)(C)C)c(O)c(C(C)(C)C)c2)c2cc3c(cc2oc1=O)CCC3
108 to 110 °C	CCCC1CC(=O)Nc2c1cnn2CC (stereo not given)
200 to 201 °C	Cc1sc2nc(SCCCN3CCN(c4nc5ccccc5s4)CC3)n(N)c(=O)c2c1C
180 to 181 °C	Cc1cccc2c(=O)[nH]c(CCN3CCCC(O)C3)cc12 (stereo not given)
74.5 to 75.5 °C	Cn1nc(Cl)c(C(=O)C(Br)c2ccccc2)c1Cl (stereo not given)
174 to 175 °C	O=c1[nH]c2ccccc2n1CCCN1CCC(c2noc3cccc(F)c23)CC1
156 to 157 °C	CC(Cc1ccccc1)C1CC=C2C3=C(CCC21C)C1(C)CCC(O)CC1CC3 (stereo not given)
96 to 97 °C	CCC1(CCOC2CCCCO2)C(=O)N2CC=CC(C(=O)OC)N2C1=O (stereo not given)
129 to 130 °C	CCOC(=O)Cc1csc(NS(=O)(=O)c2ccccc2)n1
165 to 172 °C	C[C@@H]1CN(CCCn2c3ccc(O)cc3c3c4c(c(-c5ccccc5Cl)cc32)C(=O)NC4=O)C[C@H](C)N1
69 to 70 °C	Cc1cc([N+](=O)[O-])c(NC(C)C)c([N+](=O)[O-])c1C
> 350 °C	O=c1[nH]c2cc(Cl)ccc2c(O)c1-c1cccc(F)c1
271 to 273 °C	O=c1[nH][nH]c(=O)n1-c1c(F)cc(Cl)c2c1CCCO2
170 to 171 °C	CCCCCCc1nc2c(N)nc3ccccc3c2n1CCCCNS(C)(=O)=O
207 to 209 °C	O=C(c1ccncc1)N1CCC(=C2c3ccccc3CCn3ccnc32)CC1
171 °C	CSc1ccc(C=CC(=O)c2ccc(O)cc2)cc1
74 to 75 °C	CCCCCCC(=O)NNC(=O)OC
152 to 155 °C	CCCCCCCCCCCCCCCC(N=C=O)S(=O)(=O)c1ccc2ccccc2c1 (stereo not given)
129 to 132 °C	COc1cc(NC(=O)N(Cc2ccccc2)C2CCCCC2)c(OC(C)=O)c(C(C)(C)C)c1
153 °C	O=c1[nH]c2cc(C(F)(F)F)ccc2n1CCCN1CCN(C(c2ccccc2)c2ccccc2)CC1
127 to 128 °C	CCC1(CC)CSSC[C@@H](C(=O)O)NC1=O
148 to 150 °C	N#CN1CCC(=C2c3ccccc3Oc3ccc(Cl)cc32)CC1
95 to 101 °C	CC(C)(C)OC(=O)CN(C(=O)OC(C)(C)C)[C@H](CC1CCCCC1)C(=O)N1CCC[C@H]1C(=O)NC1CCc2nc(N)sc2C1 (stereo not given in full)

melting point	SMILES
188 to 189 °C	NC(=O)CNC(=O)c1cccc(-c2ccc(Cl)c3cc(Cc4ccc(F)c(F)c4)sc23)c1
93 to 94.5 °C	CCN(CC)CCSc1nnc(SCN2C(=O)c3ccccc3S2(=O)=O)s1
113 to 116 °C	CCOP(=O)(CC(=O)Nc1cc2c(Nc3ccc(Cl)c(Br)c3)ncnc2cn1)OCC
164 °C	Oc1ccc(C2CCOCC2)cc1
124 °C	CN(c1cccc(C=C2c3ccccc3CCc3ccccc32)c1)S(C)(=O)=O
85 to 86 °C	COC(=O)C=Cc1ccc2ccccc2n1
154 to 156 °C	COCc1c[nH]c(-c2ccc(OCC(O)CO)cc2)n1 (stereo not given)
238 to 239 °C	O=C(O)/C=C1\CCc2c(F)cc(F)cc21
234 to 235 °C	NC(=O)c1ccc(N2CCN(Cc3cn4cc(Cl)cc(Cl)c4n3)CC2)cc1
308 to 312 °C	Cc1ccc2oc(C=Cc3ccc(C(=O)O)cc3)cc(=O)c2c1
170 to 171 °C	COc1ccc(C(=O)c2ccc(CC(=O)O)n2C)cc1
161 to 163 °C	COc1ccc(N2CCN(c3c(C)c(C)c4c(c3C)CC(C)(C)O4)CC2)cc1F
145 °C	O=C(OCCN1CCC(Nc2nc3ccccc3n2Cc2ccc(F)cc2)CC1)N1CCOCC1
224 °C	CC(C)(C)OC(=O)N1CCC(OCc2ccccc2)C1CC(O)Cn1cnc2cccc(C(F)(F)F)c2c1=O (stereo not given)
172 to 173 °C	CCOC(=S)c1cnc(C)nc1NC(=O)Nc1ccccc1Cl
287 to 289 °C	NC(=O)c1c(-c2ccc(F)cc2)cc2c3c1ccn3C(=O)CNC2
191 to 192 °C	CC(O)(C(=O)Nc1ccc(S(=O)(=O)c2ccccc2)cc1[N+](=O)[O-])C(F)(F)F (stereo not given)
174 to 175 °C	COc1cc(C=NNC(=O)c2ccc(O)c(N)c2)cc(OC)c1OCc1ccc(C(C)C)cc1
82 °C	CC#Cc1ccc(C2CCC(C3CCC(CCC)CC3)CC2)cc1 (stereo not given)
107 °C	O=CC1CCC(C2CC[Si](c3ccccc3)(c3ccccc3)CC2)CC1 (stereo not given)
142 to 144 °C	CC(=O)c1ccc(O)c(C(C)C)c1
286 to 288 °C	COc1cccc(Cl)c1-c1cc2c(c3c1C(=O)NC3=O)c1cc(O)ccc1n2CCCBr
101 to 102 °C	CS(=O)(=O)Nc1ccc(C(O)CCCNCCC(=O)CCC2CCCC2)cc1 (stereo not given)
127 °C	N#CC(C#N)(CC=C(Br)Br)Cc1ccc(OC(F)(F)F)cc1

melting point	SMILES
277 to 279 °C	Nc1cccc(-n2c(=O)c3c(Cc4ccccc4)n[nH]c3c3cccnc32)c1
105 to 107 °C	Cc1cc(Cc2cnc(NCCSCc3ncccc3Br)[nH]c2=O)cnc1C
156 to 157 °C	COc1ccc(-c2c3cccc(C(F)(F)F)c3nn2CC2CCCCC2)c(OC)c1
102 to 103 °C	O=C1CC(c2ccccc2)CC(=O)O1
80 to 83 °C	CC(C)(C)C(O)C(=O)CCn1cncn1 (stereo not given)
51 to 54 °C	O=C(CO)c1ccccc1F
228 to 233 °C	Nc1ccn2nc(-c3cccnc3)nc2c1
160 to 161 °C	COC(=O)NNC(=O)C(O)(c1ccccc1)c1ccccc1
231 to 233 °C	COc1cc2ncc(C#N)c(Nc3cccnc3)c2cc1OC
177 to 178 °C	CCCCCc1ccc(-c2ccc(-c3c(C(=O)OC)c4c(c5ccccc35)OC(c3ccccc3)(c3ccc(N(CC)CC)cc3)C=C4)cc2)cc1 (stereo not given)
173 to 175 °C	NC(=O)N1CC(c2ccccc2)C(c2ccc(Cl)cc2)=N1 (stereo not given)
193 to 195 °C	COCOCc1nc(N)c2ncc(OC)nc2n1
> 300 °C	Cn1cc2c(nc(NC(=O)Nc3ccc(CC(=O)O)cc3)n3nc(-c4ccco4)nc23)n1
134 to 135 °C	CS(=O)(=O)c1ccc(Oc2ccc(SC(F)(F)F)cc2)nc1
150 to 153 °C	Oc1ccc2c(c1)CCC(CNCC(O)c1ccc(Cl)cc1)C2 (stereo not given)
109 to 111 °C	CN1C(=O)CC[C@]2(C)c3ccc(CCc4ccccc4)cc3CC[C@@H]12
82 to 84 °C	COC(=O)c1cc(O)nn1Cc1ccccc1
175 to 178 °C	CCCc1c(OCCCCCOc2ccc3ccc(OCC(=O)O)cc3c2CCC(=O)O)ccc2c1OCCC2=O
63 to 64 °C	CCCC(C)c1nn(-c2ccc(C(F)(F)F)cn2)cc1C=O (stereo not given)
245 to 246 °C	Cc1nc(N(C)c2ccc(Cl)cc2)sc1-c1ccnc(Nc2ccc(N3CCOCC3)cc2)n1
> 300 °C	O=C1CCC(c2ccc(OC3CCN(C4CCC4)CC3)cc2F)=NN1
293 to 296 °C	NC(=O)c1nc(-c2cccc(O)c2)nc2c1[nH]c(=O)n2-c1ccccc1-c1ccccc1
188 to 191 °C	CC(C)Oc1nc(N)nc2c1ncn2C1C=CC(CO)C1 (stereo not given)
132 to 133 °C	CCOC1(OCC)CCC2(CC1)c1cc(O)c(O)cc1CC(C(=O)O)N2C(=O)OCc1ccccc1 (stereo not given)

melting point	SMILES
246 °C	CCCN1CCC(C2=C(C#N)C(c3cccc4nonc34)c3c[nH]nc3N2)CC1 (stereo not given)
176 °C	O=C(O)c1cn(C2CC2)c2cc(N3CCNC(c4ccco4)C3)c(F)cc2c1=O (stereo not given)
256 to 258 °C	CC(C)[C@H](NCc1ccc(I)cc1)C(=O)O
188 to 189 °C	CC(C)(C)OC(=O)N1CCN2C(=O)OC(Cc3ccccc3)(Cc3ccccc3)C2C1 (stereo not given)
72 to 74 °C	CCC(=NO)C(C)(C)NCCCN
193 to 194 °C	CC1(C)CCC[C@H](N2C(=O)c3ccccc3C2=O)C(=O)N1
174 to 176 °C	CC(C)c1cc(-c2ccncc2)c(-c2ccc(F)cc2)n1CCC1CC(O)CC(=O)O1 (stereo not given)
66 °C	Clc1cc(Cl)cc(C=C2CCC3(CC2)OCCO3)c1
46 to 51 °C	CCN(CC)C(=O)n1cnc(S(=O)(=O)CC2CCCCCC2)n1
208 to 211 °C	OC1CSC(Oc2cncc(-c3ccc(F)cc3Cl)c2)C(O)C1O (stereo not given)
216 to 217 °C	O=C(COc1ccc(C2=NNC(=O)NC2)cc1)NCCN1CCOCC1
179 to 180 °C	C#CCCC(=O)N1c2ccccc2C(=O)Nc2cccnc21
213 to 214 °C	COc1ccc(-c2c(C)c3ccc(O)cc3oc2=O)c(O)c1
150 to 152 °C	COc1ccc(C=Cc2ncn(CC(O)(Cn3cncn3)c3ccc(F)cc3F)n2)cc1 (stereo not given)
116 to 117 °C	Cc1cc(Nc2ccn(-c3ccccc3)n2)cc(C)c1OC(=O)CC#N
80 to 82 °C	COC(=O)c1cc(N)cc(N)c1SCc1ccccc1
148 to 150 °C	COc1cc(-c2cc(C(F)(F)F)nn2-c2ccc(S(C)(=O)=O)c(F)c2)ccc1-c1cocn1
73 °C	CCC[C@H]1CC[C@H](CCc2ccc(-c3ccc(OCC)c(F)c3F)cc2)CC1
264 °C	CC1(C)OC(=C(C#N)C#N)C(C#N)=C1c1ccc(C2CCCCCN2)s1 (stereo not given)
99 to 104 °C	CC(=O)c1ccc(OC2CCOCC2)cc1O
44 to 46 °C	CC(=Cc1ccccc1)c1ccc2c(c1)OCCC2(C)C
111 to 112 °C	COC(=O)CCCSc1c(Cc2cccc3ccccc23)sc2c1c(=O)n(C)c(=O)n2CC(C)C

SMILES	melting point
CCCN1CCC(c2ccccc2)=C(C(=O)NCC)C1	80 to 83 °C
C=CC(=O)Nc1ccc(-c2ccc(C(=O)N3CCN4CCC3CC4)o2)cc1	230 to 246 °C
C=C(C(=O)OCC)c1cccc(-c2cc3c(cc2C)C(C)(C)CCC3(C)C)c1	70 to 72 °C
CN(C)Cc1ccc(CSCCNC(=N)N[N+](=O)[O-])s1	118 °C
COc1ccc(CN2Cc3c(-c4nc(C5CC5)no4)ncn3-c3ccc(OC)cc3C2=O)c(OC)c1	> 240 °C
COC(=O)/C=C/[C@H]1[C@@H](C(=O)OCc2cnc(Oc3ccccc3)s2)C1(C)C	62 °C
